Read-outs that look alike come from different tables or passages of the source.

Experiment [1] has as its system HUVEC. As to the kind of experiment: HUVEC proliferation (MTS). It is filed as cell-based, human. An excerpt: In vivo angiogenesis is dependent on endothelial cell proliferation; therefore, the inhibition of HUVEC proliferation is commonly utilized as an early stage in vitro model of anti-angiogenic activity. […] Under normal conditions, HUVECs plated and grown on Matrigel migrate towards each other, align, and form tubes that resemble in vivo capillary beds. This assay is generally considered a more robust model of angiogenesis as it requires several aspects of proper vessel formation, including adhesion, migration, and tube formation.
HUVEC Cell Viability and Proliferation. HUVEC cell viability and proliferation will be assessed by measuring cellular metabolic activity using MTT (viability) or MTS (proliferation) according to the manufacturer's instructions. HUVECs (3000 cells/well) are seeded in a 96-well plate and allowed to attach overnight. […] For viability, the final value is a corrected optical density (570 nm-690 nm). All viability and GI50 values are from a minimum of three separate experiments performed in triplicate.
HUVEC Cell Viability and Proliferation. HUVEC cell proliferation was assessed by measuring cellular metabolic activity using standard MTS/PMS protocols according to manufacturer's instructions. Briefly, HUVECs (3,000 cells/well) were seeded in a 96-well plate and allowed to attach overnight. Cells were treated with varying concentrations of drug as indicated and proliferation was assessed after 72 h with MTS.

Experiment [2] relates to Hh signaling (Gli1 mRNA) in C3H10T1/2 cells. As to the kind of experiment: Down-regulation of endogenous Gli1 mRNA in Hh-dependent C3H10T1/2 cells. The conditions noted are these: for mrna remaining at 1 µM / IC50: Mus musculus; for mrna remaining at 1 µM: read-out: % Gli expression (1 μM). The format is cell-based, mouse. As for the experimental part:
To determine whether the triazole functionality was required for inhibition of Hh signaling, the ability of Analogue 1 to down-regulate the well-characterized Hh pathway target gene Gli1 in the Hh-dependent C3H10T1/2 cell line was determined. In this cellular model, activation of the pathway with exogenous recombinant Hh ligand results in a characteristic up-regulation of Gli1 mRNA, while concomitant administration of a pathway inhibitor reduces Gli1 expression.
(§1) General Information. Protocols for general cell culture, qPCR and Hh inhibition in C3H10T1/2 and ASZ cells are as previously described.^28 Protocols for the initiation and growth of Math1-Cre-ER; Ptc^fl/fl medulloblastoma tumors, isolation and in vitro culture of MERP MB cells, as wells as the anti-proliferation and qPCR studies performed in these cells were as previously described.^a Sonic Hedgehog (C25II) recombinant mouse protein was purchased from Life Technologies. aData was analyzed using GraphPad Prism 5 and reported values represent mean±SEM for at least two separate experiments performed in triplicate.
(§2) In this well-studied model system for evaluating small molecule inhibition of Hh signaling, addition of an exogenous Hh agonist (recombinant Hh ligand or small molecule) results in a characteristic increase in Gli1 mRNA expression. Concomitant incubation with a pathway inhibitor reduces Gli1 expression. Analogues that reduced Gli1 mRNA levels below 20% in this assay were subsequently evaluated for their ability to reduce Gli1 mRNA expression levels in a concentration-dependent fashion in these cells and the Hh-dependent murine BCC cell line ASZ. In addition, several compounds were evaluated for their anti-proliferative effects in primary Hh-dependent medulloblastoma cells isolated from conditional patched knockout (Math1-Cre-ER; Ptc^fl/fl, MERP) mice. […] Finally, each of these analogues was evaluated for its ability to inhibit proliferation in human umbilical vein […] cells (HUVECs). In vivo angiogenesis is dependent on endothelial cell proliferation; therefore, the inhibition of HUVEC proliferation is commonly utilized as an early stage in vitro model of anti-angiogenic activity.

Experiment [3] has as its system Hh signaling (Gli1 mRNA) in ASZ cells. In words: Down-regulation of endogenous Gli1 mRNA in ASZ cells. The format is cell-based, murine. The following applies: Mus musculus. As for the experimental part: as §1, §2
[4] abbreviates: Homo sapiens, HUVEC, 72 h, read-out: GI50 (μM) HUVEC, 72 h.
[5] abbreviates: C3H 10T1/2, 24 h, read-out: IC50 (μM) C3H10T1/2, 24 hr incubation.
The mark [6] stands for this setting: 48 h, read-out: IC50 (μM) ASZ, 48 hr incubation.
[7] abbreviates: Homo sapiens, HUVEC, 72 h, read-out: GI50 (μM) HUVEC.
The mark [8] stands for this setting: C3H 10T1/2, 1 μM, 24 hr incubation, relative to recombinant Hh ligand control (100%).
[9] abbreviates: C3H 10T1/2, read-out: IC50 (μM) Gli1-C3Hs.
Where [10] appears, read: C3H 10T1/2, 24 hr incubation, read-out: IC50 (μM) C3H10T1/2.
Setting [11] is: 48 hr incubation, read-out: IC50 (μM) ASZ.

With `CC[C@@H](C)n1ncn(-c2ccc(N3CCN(c4ccc(OCC5COC(Cn6cncn6)(c6ccc(Cl)cc6Cl)O5)cc4)CC3)cc2)c1=O` (stereo partly drawn) [Compound 7a, 4-(4-(4-(4-((2-((1H-1,2,4-triazol-1-yl)methyl)-2-(2,4-dichlorophenyl)-1,3-dioxolan-4-yl)methoxy)phenyl)piperazin-1-yl)phenyl)-2-((R)-sec-butyl)-2,4-dihydro-3H-1,2,4-triazol-3-one], the GI50 in experiment [1] (setting [4]) turned out to be 1.7 ± 0.4 µM. Besides, the mrna remaining at 1 µM in experiment [2] (C3H 10T1/2, 24 h) came to 3 ± 0.9%. Moreover, the figures for the IC50 in experiment [2] (setting [5]) and in experiment [3] (setting [6]) were 0.14 ± 0.04 µM and 0.16 ± 0.07 µM, respectively.
Taken in the same sequence, the figures for `CC[C@H](C)n1ncn(-c2ccc(N3CCN(c4ccc(OCC5COC(Cn6cncn6)(c6ccc(Cl)cc6Cl)O5)cc4)CC3)cc2)c1=O` (stereo partly drawn) [Compound 6a, 4-(4-(4-(4-((2-((1H-1,2,4-triazol-1-yl)methyl)-2-(2,4-dichlorophenyl)-1,3-dioxolan-4-yl)methoxy)phenyl)piperazin-1-yl)phenyl)-2-((S)-sec-butyl)-2,4-dihydro-3H-1,2,4-triazol-3-one] were 2.5 ± 0.3 µM, 6.9 ± 3.1%, 0.16 ± 0.04 µM and 0.14 ± 0.008 µM.
Turning to `CCC(C)n1ncn(-c2ccc(N3CCN(c4ccc(O)cc4)CC3)cc2)c1=O` (centres unmarked) [Compound 45a], the GI50 in experiment [1] (72 h, read-out: GI50 (μM) HUVEC) is greater than 100 µM. For the same molecule, in experiment [2] (1 μM, 24 hr incubation, relative to recombinant Hh ligand control (100%)), the “% Gli expression (1 μM)” value is given as 45.7 ± 3.0%.
`CCC(C)n1ncn(-c2ccc(N3CCN(c4ccc(OCC5COC(C)(Cn6cncn6)O5)cc4)CC3)cc2)c1=O` (centres unmarked) [Compound 4a, 4-(4-(4-(4-((2-((1H-1,2,4-triazol-1-yl)methyl)-2-methyl-1,3-dioxolan-4-yl)methoxy)phenyl)piperazin-1-yl)phenyl)-2-(sec-butyl)-2,4-dihydro-3H-1,2,4-triazol-3-one]: the GI50 in experiment [1] (setting [7]) was 18.4 ± 4.5 µM. Besides, in experiment [2] (setting [8]), the mrna remaining at 1 µM stood at 61.4 ± 3.5%.
Regarding `C[C@@H](O)Cn1ncn(-c2ccc(N3CCN(c4ccc(OCC5COC(Cn6cncn6)(c6ccc(Cl)cc6Cl)O5)cc4)CC3)cc2)c1=O` (some centres unmarked) [Itz-psz #2 (R−)], the IC50 in experiment [2] (setting [9]) turned out to be 0.18 ± 0.02 µM; in experiment [3] (read-out: IC50 (μM) Gli1-ASZs) it was 0.1 ± 0.01 µM.
With `CC[C@H](C)n1ncn(-c2ccc(N3CCN(c4ccc(OC[C@@H]5CO[C@@](C)(c6ccc(Cl)cc6Cl)O5)cc4)CC3)cc2)c1=O` [Compound 16a, 2-((S)-sec-butyl)-4-(4-(4-(4-(((2R,4R)-2-(2,4-dichlorophenyl)-2-methyl-1,3-dioxolan-4-yl)methoxy)phenyl)piperazin-1-yl)phenyl)-2,4-dihydro-3H-1,2,4-triazol-3-one], the GI50 in experiment [1] (setting [7]) worked out at 18.3 ± 11.8 µM. The IC50 in experiment [2] (setting [10]) was 0.47 ± 0.001 µM; in experiment [3] (setting [11]), 0.38 ± 0.07 µM.
In the case of `CCCn1ncn(-c2ccc(N3CCN(c4ccc(OCC5COC(Cn6cncn6)(c6ccc(Cl)cc6Cl)O5)cc4)CC3)cc2)c1=O` (centres unmarked) [Compound 8a, 4-(4-(4-(4-((2-((1H-1,2,4-triazol-1-yl)methyl)-2-(2,4-dichlorophenyl)-1,3-dioxolan-4-yl)methoxy)phenyl)piperazin-1-yl)phenyl)-1-propyl-1H-1,2,4-triazol-5(4H)-one], in experiment [1] (setting [4]), the GI50 stood at 4.7 ± 0.3 µM. Further, the mrna remaining at 1 µM in experiment [2] (C3H 10T1/2, 24 h) is 58.5 ± 6.4%.
As for `CS(=O)(=O)c1ccc(C(=O)Nc2ccc(Cl)c(-c3ccccn3)c2)c(Cl)c1` [GDC-0449, reference compound], the IC50 is 0.082 ± 0.02 µM in experiment [2] (C3H 10T1/2, down-regulation of endogenous Gli1 mRNA, read-out: Hh pathway inhibition C3H10T1/2) and 0.04 ± 0.01 µM in experiment [3] (down-regulation of endogenous Gli1 mRNA, read-out: Hh pathway inhibition ASZ).
Consider `CCCn1ncn(-c2ccc(N3CCN(c4ccc(OC[C@@H]5CO[C@](C)(c6ccc(Cl)cc6Cl)O5)cc4)CC3)cc2)c1=O` [Compound 23a, 4-(4-(4-(4-(((2S,4R)-2-(2,4-dichlorophenyl)-2-methyl-1,3-dioxolan-4-yl)methoxy)phenyl)piperazin-1-yl)phenyl)-2-propyl-2,4-dihydro-3H-1,2,4-triazol-3-one], for which, in experiment [1] (setting [7]), the GI50 was 49.9 ± 15.9 µM. For the same molecule, the IC50 in experiment [2] (setting [10]) is greater than 10 µM; in experiment [3] (setting [11]) it was 1.4 ± 0.5 µM.
As to `O=[N+]([O-])c1ccc(N2CCN(c3ccc(OCC4COC(Cn5cncn5)(c5ccc(Cl)cc5Cl)O4)cc3)CC2)cc1` (centres unmarked) [Compound 10a, 1-(4-((2-((1H-1,2,4-triazol-1-yl)methyl)-2-(2,4-dichlorophenyl)-1,3-dioxolan-4-yl)methoxy)phenyl)-4-(4-nitrophenyl)piperazine], in experiment [1] (setting [4]), the GI50 worked out at 8.4 ± 0.7 µM. Further, the mrna remaining at 1 µM in experiment [2] (C3H 10T1/2, 24 h) came to 1.5 ± 0.05%. Besides, the IC50 in experiment [2] (setting [5]) was 0.13 ± 0.03 µM; in experiment [3] (setting [6]) it was 0.09 ± 0.01 µM.
On to `CC(=O)N1CCN(c2ccc(OCC3COC(Cn4ccnc4)(c4ccc(Cl)cc4Cl)O3)cc2)CC1` (centres unmarked) [ketoconazole, reference compound], for which the “Hh inhibitory activity relative to ITZ” value in experiment [2] (1 μM) was “significant reduction in Hh inhibitory activity”.
As for `CC(C)N1CCN(c2ccc(OCC3COC(Cn4cncn4)(c4ccc(Cl)cc4Cl)O3)cc2)CC1` (centres unmarked) [terconazole, reference compound], the “Hh inhibitory activity relative to ITZ” value in experiment [2] (1 μM) was “significant reduction in Hh inhibitory activity”.
`CC[C@H](C)n1ncn(-c2ccc(N3CCN(c4ccc(OC[C@H]5CO[C@](C)(c6ccc(Cl)cc6Cl)O5)cc4)CC3)cc2)c1=O` [Compound 14a, 2-((S)-sec-butyl)-4-(4-(4-(4-(((2S,4S)-2-(2,4-dichlorophenyl)-2-methyl-1,3-dioxolan-4-yl)methoxy)phenyl)piperazin-1-yl)phenyl)-2,4-dihydro-3H-1,2,4-triazol-3-one]: the GI50 in experiment [1] (setting [7]) was 7.7 ± 4.4 µM. The IC50 in experiment [2] (setting [10]) was 1.1 ± 0.17 µM; in experiment [3] (setting [11]) it was 2.5 ± 0.7 µM.
With `CCCn1ncn(-c2ccc(N3CCN(c4ccc(OC[C@@H]5CO[C@@](C)(c6ccc(Cl)cc6Cl)O5)cc4)CC3)cc2)c1=O` [Compound 22a, 4-(4-(4-(4-(((2R,4R)-2-(2,4-dichlorophenyl)-2-methyl-1,3-dioxolan-4-yl)methoxy)phenyl)piperazin-1-yl)phenyl)-2-propyl-2,4-dihydro-3H-1,2,4-triazol-3-one], the GI50 in experiment [1] (setting [7]) was found to be 26.5 ± 3.5 µM. The values for the IC50 in experiment [2] (setting [10]) and in experiment [3] (setting [11]) were 4.1 ± 1.5 µM and 1.3 ± 0.65 µM, respectively.
Regarding `CCC(C)n1ncn(-c2ccc(N3CCN(c4ccc(OCC5COC(C)(C)O5)cc4)CC3)cc2)c1=O` (centres unmarked) [Compound 5a, 1-(sec-butyl)-4-(4-(4-(4-((2,2-dimethyl-1,3-dioxolan-4-yl)methoxy)phenyl)piperazin-1-yl)phenyl)-1H-1,2,4-triazol-5(4H)-one], in experiment [1] (setting [7]), the GI50 was greater than 100 µM. Besides, the mrna remaining at 1 µM in experiment [2] (setting [8]) worked out at 71.4 ± 5.5%.
Turning to `C[C@H](O)Cn1ncn(-c2ccc(N3CCN(c4ccc(OCC5COC(Cn6cncn6)(c6ccc(Cl)cc6Cl)O5)cc4)CC3)cc2)c1=O` (some centres unmarked) [Itz-psz #1 (S−)], the IC50 turned out to be 0.45 ± 0.09 µM in experiment [2] (setting [9]) and 0.15 ± 0.01 µM in experiment [3] (read-out: IC50 (μM) Gli1-ASZs).
For “1-(sec-butyl)-4-(4-(4-(4-((2-(2,4-dichlorophenyl)-2-methyl-1,3-dioxolan-4-yl)methoxy)phenyl)piperazin-1-yl)phenyl)-1H-1,2,4-triazol-5(4H)-one [Compound 2a]”, the GI50 in experiment [1] (read-out: GI50 HUVEC proliferation) was 0.49 µM.
